Experimental data published in publication PMC8765435, “In Vitro Antimalarial Activity of Inhibitors of the Human GTPase Rac1” (Antimicrobial Agents and Chemotherapy, 2022).
Read-outs that look alike come from different tables or passages of the source.

Experiments:
Rac1 [1] = target: T1, Rac1 (Homo sapiens, UniProt P63000); parameters: endogenous in cells; method as in PMID 24040362; conditions: Rac1 activity in 22Rv1 human prostate cancer cells; cited from earlier work
3D7 mature gametocytes = assay: Gametocyte viability luminescence assay, mature gametocytes; assay type: cell-based, Plasmodium falciparum
Procedure: (§1) Chloroquine (CQ)-sensitive (D10, wild-type 3D7, or transgenic 3D7elo1-pfs16-CBG99) and CQ-resistant (W2) strains of P. falciparum were cultured as described previously ([58]), with slight modifications, as detailed in the supplemental material.
(§2) Asexual parasite growth was determined spectrophotometrically (optical density at 650 nm [OD650]) by measuring the activity of parasite lactate dehydrogenase (pLDH), according to a modified version of the method of Makler et al. ([59]). Gametocyte viability was measured by a luminescence method described previously ([60]). Details for the two methods are reported in the supplemental material. From either the OD or ALU (arbitrary luminescence units), the percentages of viability were calculated according to the formula 100 × (treated sample signal − blank signal)/(untreated control signal − blank signal). The blank for the pLDH assay was uninfected RBCs at the same hematocrit as that of parasitized RBCs, and the blank for the luminescence assay was parasites treated with a high dose of methylene blue. […]
(§3) strain (wild type or transgenic 3D7elo1-pfs16-CBG99 strain) was cultured in similar conditions, except for 10% naturally clotted Human O+ serum instead of AlbuMaxII and human type O-positive instead of A-positive RBCs. […]
(§4) in a standard gas mixture consisting of 1% O2, 5% CO2, 94% N2. Immature (stage II-III) and mature (stage V) gametocytes were obtained as described1. Briefly, cultures were diluted to 0.5% parasitemia at 5% HCT, and the medium was changed daily until parasites were stressed by nutrient deprivation. N-acetylglucosamine (NAG) (Sigma-Aldrich) 50 mM was then added to clear residual asexual parasites: Stage II and III gametocytes were obtained 4 days after NAG addition to the culture, while stage IV and V gametocytes were used 11 to 13 days from NAG addition. Gametocyte stages were routinely checked on Giemsa-stained smears. […]
(§5) Drug treated gametocyte cultures were transferred to 96-well black microplates and D-luciferin (1 mM in citrate buffer 0.1 M, pH 5.5) was added at a 1:1 volume ratio. Luminescence measurements were performed after 10 min with 500 ms integration time. Gametocytes treated

[2] = test system: HMEC-1 human microvascular endothelial cells; assay: Cell cytotoxicity MTT assay; assay type: cell-based; conditions: for IC50: read-out: Mean HMEC-1 IC50 ± SD; for SI (selectivity index): ratio IC50 against HMEC-1 cells / IC50 against D10 asexual parasites
Procedure: Cytotoxicity was evaluated on human microvascular endothelial cells (HMEC-1) as detailed in the supplemental material. […] Plates were then read on a microplate reader (Synergy 4; BioTek) at a wavelength of 550 nm (reference, 650 nm). […] All tests were performed in duplicate at least three times.
The selectivity index (SI) is the ratio between the cytotoxic IC50 value against HMEC-1 cells and the parasitic IC50 value against the D10 strain and indicates the compound selectivity for the parasite.
Cytotoxicity was evaluated on Human Microvascular Endothelial Cells (HMEC-1) maintained
and 2 mM L-glutamine. Cells were seeded in 96 well flat bottom tissue culture clusters (1.5x104
cells/well), let adhere overnight and treated with serial dilutions of test compounds . […]

3D7 immature gametocytes = assay: Gametocyte viability luminescence assay, immature gametocytes; assay type: cell-based, Plasmodium falciparum; conditions: 72 h, read-out: Mean IC50 ± SD, 3D7 immature gametocytes
Procedure: as §1, §2, §3, §4, §5

[3] = test system: P. falciparum asexual parasites, chloroquine-resistant W2 strain; assay: Drug susceptibility assay (pLDH), asexual parasites, W2 strain; assay type: cell-based, Plasmodium falciparum
Procedure: as §1, §2
(§6) The CQ-sensitive (D10) and the CQ-resistant (W2) strains were maintained at 5% hematocrit […]
(§7) supplemented with 1% AlbuMaxII (lipid-rich bovine serum albumin) (Invitrogen), 0.01% hypoxantine (Sigma), 20mM Hepes (EuroClone), 2 mM glutamine (EuroClone). […]
(§8) In vitro P. falciparum drug susceptibility assay […]
(§9) plate were transferred to a plate containing 100µl of Malstat reagent (0.11% [vol/vol] Triton- […]
(§10) dinucleotide [APAD] [Sigma-Aldrich], adjusted to pH 9 with 1 M HCl) and 25 µl of PES/NBT […]
(§11) pLDHassay. The plate was read at a wavelength of 650 nm using a microplate reader, Synergy4 […]
(§12) Uninfected RBC at the same HCT than parasites were used as blank. […]

[4] = test system: P. falciparum asexual parasites, chloroquine-sensitive D10 strain; assay: Drug susceptibility assay (pLDH), asexual parasites, D10 strain; assay type: cell-based, Plasmodium falciparum; conditions: for antimalarial activity (in words): asexual and sexual P. falciparum parasites
Procedure: as §1, §2, §6, §7, §8, §9, §10, §11, §12

[5] = test system: P. falciparum asexual parasites, chloroquine-resistant W2 strain; parameters: method as in PMID 33328606; conditions: reported previously, read-out: Mean IC50 ± SD, W2; cited from earlier work
[6] = test system: P. falciparum asexual parasites, chloroquine-sensitive D10 strain; parameters: method as in PMID 33328606; conditions: reported previously, read-out: Mean IC50 ± SD, D10; cited from earlier work
[7] = test system: F3II mammary carcinoma cells; parameters: method as in PMID 24066799; conditions: F3II mammary carcinoma cell proliferation; cited from earlier work
Rac1 [8] = test system: Rac1; parameters: method as in PMID 17932039; conditions: Rac1 activity in U87MG glioma cells; cited from earlier work
[9] = test system: REF-52 rat embryo fibroblasts; parameters: method as in PMID 19549603; conditions: Actin stress fiber formation in REF-52 rat embryo fibroblasts; cited from earlier work
Rac1 [10] = test system: Rac1; parameters: method as in PMID 21433368; conditions: Rac1 activity in EGF-stimulated NIH 3T3 fibroblasts; cited from earlier work
Rac1 [11] = test system: Rac1; parameters: method as in PMID 20008126; conditions: Rac1 activity in Swiss 3T3 embryonic mouse fibroblasts; cited from earlier work
Rac1 [12] = test system: Rac1; parameters: method as in PMID 15128949; conditions: Rac1 activity in PDGF-stimulated NIH 3T3 fibroblasts; cited from earlier work
Rac1 [13] = target: T1, Rac1; parameters: endogenous in cells; conditions: Rac1 activity in human smooth muscle cells; cited from earlier work
[14] = Plasmodium falciparum, 3D7, stage V gametocytes, 72 h, luminescence, read-out: Mean IC50 ± SD, 3D7 mature gametocytes
[15] = Homo sapiens, HMEC-1, MTT, 72 h
[16] = Plasmodium falciparum, 3D7, stage II-III gametocytes
[17] = Plasmodium falciparum, W2, 72 h, asexual parasites, CQ-resistant W2 strain, 72 h, pLDH, read-out: Mean IC50 ± SD, W2
[18] = asexual parasites, CQ-resistant W2 strain, 72 h, pLDH, read-out: Mean IC50 ± SD, W2
[19] = stage V gametocytes, 72 h, luminescence, read-out: Mean IC50 ± SD, 3D7 mature gametocytes
[20] = asexual parasites, CQ-sensitive D10 strain, 72 h, pLDH, read-out: Mean IC50 ± SD, D10

Cc1cc2cc(Nc3ccnc(Nc4ccc5[nH]c(C)cc5c4)n3)ccc2[nH]1 [Aza-1]
IC50 (Rac1 [1]): 5 to 20 µM | IC50 (3D7 mature gametocytes; [14]): 7.23 ± 2.12 µM | IC50 [2, 15]: 12.3 ± 6.11 µM | SI (selectivity index) [2]: 48.9 | IC50 (3D7 immature gametocytes; [16]): 1.25 ± 0.48 µM | IC50 [3, 17]: < 1 µM | IC50 [3, 18]: 0.76 ± 0.27 µM

CCN(CC)CCCC(C)Nc1ccnc2cc(Cl)ccc12 (stereo not drawn) [Chloroquine]
IC50 ([3]; Plasmodium falciparum, W2, 72 h, read-out: Mean IC50 ± SD, W2): 0.42 ± 0.08 µM | IC50 ([4]; Plasmodium falciparum, D10, 72 h, read-out: Mean IC50 ± SD, D10): 0.02 ± 0.003 µM

Cc1cc(C)cc(NC(N)=Nc2ccccc2C(F)(F)F)c1 [Compound 1A116]
IC50 (3D7 mature gametocytes; [19]): 56.6 ± 21.3 µM | IC50 ([2]; MTT, 72 h): 132 ± 37.3 µM | IC50 [5]: 6.89 ± 1.41 µM | IC50 (3D7 immature gametocytes; stage II-III gametocytes): 78.1 ± 17.7 µM | IC50 [6]: 3.21 ± 1.17 µM | IC50 [7]: 4 µM

CC1CCCN(S(=O)(=O)c2ccc(NC(=O)c3cc(-c4ccccc4O)n[nH]3)cc2)C1 (stereo not drawn) [Compound 3]
IC50 (3D7 mature gametocytes; [14]): 21.9 ± 2.71 µM | IC50 ([2]; Homo sapiens, HMEC-1, 72 h): 10.6 ± 1.19 µM | IC50 (3D7 immature gametocytes; [16]): 2.26 ± 0.22 µM | melting point: 254 to 258 °C | IC50 ([3]; Plasmodium falciparum, W2, 72 h, read-out: Mean IC50 ± SD, W2, asexual parasites, CQ-resistant W2 strain, 72 h, pLDH): < 1 µM | IC50 ([3]; read-out: Mean IC50 ± SD, W2, asexual parasites, CQ-resistant W2 strain, 72 h, pLDH): 0.52 ± 0.02 µM | IC50 ([4]; Plasmodium falciparum, D10, 72 h, read-out: Mean IC50 ± SD, D10, asexual parasites, CQ-sensitive D10 strain, 72 h, pLDH): < 1 µM | IC50 ([4]; read-out: Mean IC50 ± SD, D10, asexual parasites, CQ-sensitive D10 strain, 72 h, pLDH): 0.66 ± 0.05 µM

CC1CCCN(S(=O)(=O)c2cccc(NC(=O)c3cc(-c4ccccc4O)n[nH]3)c2)C1 (stereo not drawn) [Compound 3′]
IC50 (3D7 mature gametocytes; [14]): 26.6 ± 3.7 µM | IC50 [2, 15]: 16 ± 0.44 µM | SI (selectivity index) [2]: 5.8 | IC50 (3D7 immature gametocytes; [16]): 2.13 ± 0.43 µM | IC50 [3, 17]: 1.24 ± 0.13 µM | IC50 ([4]; Plasmodium falciparum, D10, 72 h, asexual parasites, CQ-sensitive D10 strain, 72 h, pLDH, read-out: Mean IC50 ± SD, D10): 2.76 ± 0.12 µM

O=c1cc(CN2CCOCC2)occ1OCCCCCSc1ccnc2cc(C(F)(F)F)ccc12 [EHT1864]
IC50 (3D7 mature gametocytes; [19]): 32.6 ± 0.92 µM | IC50 ([2]; MTT, 72 h): 48.5 ± 1.23 µM | IC50 [5]: 7.75 ± 1.82 µM | IC50 (3D7 immature gametocytes; stage II-III gametocytes): > 50 µM | IC50 [6]: 3.88 ± 0.74 µM | IC50 (Rac1 [8]): 10 to 50 µM

Cc1cc(/C=c2/sc3nc4ccccc4n3c2=O)c(C)n1-c1ccccc1 [ITX3]
IC50 [9]: 50 to 100 µM | IC50 [3, 18]: > 50 µM | antimalarial activity (in words) [4]: no effect | IC50 [4, 20]: > 50 µM

COc1ccc(C2CC(c3ccccc3)=NN2c2ccc(S(N)(=O)=O)cc2)cc1 (stereo not drawn) [ML141]
IC50 (Rac1 [10]): ~10 µM | IC50 [3, 18]: 17.3 ± 1.84 µM | IC50 [4, 20]: 10.7 ± 0.29 µM

O=C(C#Cc1ccccc1)c1cccc([N+](=O)[O-])c1 [MLS000532223]
IC50 (Rac1 [11]): ~10 µM | IC50 [3, 18]: 9.51 ± 1.66 µM | IC50 [4, 20]: 6.89 ± 0.73 µM

CN(C)c1ccc2nc3ccc(=[N+](C)C)cc-3sc2c1 [Methylene blue]
IC50 (3D7 mature gametocytes; [14]): 0.12 ± 0.03 µM | IC50 (3D7 immature gametocytes; [16]): 0.03 ± 0.01 µM

CCN(CC)CCCC(C)Nc1nc(C)cc(Nc2ccc3nc(C)cc(N)c3c2)n1 (stereo not drawn) [NSC23766]
IC50 (3D7 mature gametocytes; [19]): 30.8 ± 3.09 µM | IC50 ([2]; MTT, 72 h): 154 ± 38.5 µM | IC50 (3D7 immature gametocytes; stage II-III gametocytes): 15.3 ± 3.7 µM | IC50 (Rac1 [12]): […] | IC50 [3, 18]: 4.05 ± 0.5 µM | IC50 [4, 20]: 5.02 ± 1.47 µM

Cc1ccc(NC(=O)c2cccc(OCc3c(C)noc3C)c2)cc1S(N)(=O)=O [Rac1 inhibitor II]
IC50 [3, 18]: 37.5 ± 8.67 µM | IC50 (Rac1 [13]): 12.2 µM | IC50 [4, 20]: 11.9 ± 7.37 µM

Cc1cc(C)nc(NS(=O)(=O)c2ccc(NC(=S)NC(=O)COc3ccc(Br)cc3Cl)cc2)n1 [ZCL278]
IC50 (3D7 mature gametocytes; Table S2, CDC42 inhibitors, read-out: IC50, 3D7 mature gametocytes): 63.5 ± 27.3 µM | IC50 [3, 18]: > 50 µM | antimalarial activity (in words) [4]: not active | IC50 [4, 20]: > 50 µM

Cc1cc(C)nc(N=C(N)Nc2ccccc2C(F)(F)F)n1 [ZINC69391]
IC50 [3, 18]: 12.6 ± 5.25 µM | IC50 [4, 20]: 17.5 ± 4.64 µM | IC50 [7]: 61 µM
